According to ChEMBL document CHEMBL3137667, “[Drug-induced liver injury; fourteenth updated edition of the bibliographic database of liver injuries and related drugs]” (Gastroenterol Clin Biol, 2004):

How the values were obtained:
[1] = human, serum
[2] = human
[3] = human; remark: listed apart in the source
[4] = human; remark: listed apart in the source
[5] = human; remark: listed apart in the source
[6] = Comments (NB not yet translated). [column 'COMMENTAIRES' in source]; conditions: human
[7] = human; remark: listed apart in the source
[8] = human; remark: listed apart in the source
[9] = human; remark: listed apart in the source
[10] = human, serum, 4383 h
[11] = human; remark: listed apart in the source
[12] = Highest frequency of acute liver toxicity observed during clinical trials, expressed as a percentage. [column '% AIGUE' in source]; conditions: human
[13] = human, serum; remark: listed apart in the source
[14] = Times to onset, minimal and maximal, observed in the indexed observations. [column 'DELAI' in source]; conditions: human
[15] = Proposed mechanism(s) of liver damage. [column 'MEC' in source]; conditions: human
[16] = Highest frequency of moderate liver toxicity observed during clinical trials, expressed as a percentage. [column '% BIOL' in source]; conditions: human
[17] = human; remark: listed apart in the source
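For Hepatotoxicity (association with vascular disease) in this document: count of indexed literature references reporting vascular liver injury in humans, e.g. peliosis hepatitis, hepatic veno-occlusive disease or Budd-Chiari syndrome.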
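For Hepatotoxicity (benign tumour) in this document: value is a count of indexed literature references citing a benign tumour confirmed by histopathology.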
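For Hepatotoxicity (choleostasis) in this document: human cholestatic liver injury, shown by histopathology or by peak ALT or AST elevation over alkaline phosphatase ratio below 2, value counts indexed literature reports.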
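For Hepatotoxicity (chronic liver disease) in this document: chronic liver injury confirmed by histopathology or persistently raised serum aminotransferase activity beyond 6 months, value given as the count of indexed literature references.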
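For Hepatotoxicity (cirrhosis) in this document: value is a count of indexed literature references reporting cirrhosis confirmed by histopathology.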
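For Hepatotoxicity (cytolytic) in this document: human cytolytic liver injury, shown by histopathology or by a ratio above 5 of peak ALT or AST elevation to alkaline phosphatase elevation, value counts indexed references.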
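For Hepatotoxicity (granulomatous hepatitis) in this document: value is a count of indexed literature references reporting granulomatous liver disease confirmed by histopathology.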
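For Hepatotoxicity (malignant tumour) in this document: malignant tumour confirmed by histopathology, value gives the count of indexed literature references reporting it.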
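For Hepatotoxicity (severe hepatitis) in this document: human clinical data: severe hepatitis, meaning potentially life-threatening liver failure or clinically observed cases, the value counts how many indexed literature references report it.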
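For Hepatotoxicity (steatosis) in this document: steatosis confirmed by histopathology, value is the count of indexed references.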

| Structure (SMILES) | Hepatotoxicity (moderate) [1] | Hepatotoxicity (benign tumour) [2] | Hepatotoxicity (association with vascular disease) [3] | Hepatotoxicity (granulomatous hepatitis) [4] | Hepatotoxicity (steatosis) [5] | Hepatotoxicity (comment) [6] | Hepatotoxicity (cirrhosis) [7] | Hepatotoxicity (cytolytic) [8] | Hepatotoxicity (chronic liver disease) [10] | Hepatotoxicity (malignant tumour) [11] | Hepatotoxicity (acute) [13] | Hepatotoxicity (time to onset) [14] | Hepatotoxicity (mechanism) [15] | Hepatotoxicity (choleostasis) [17] | Hepatotoxicity (severe hepatitis) [9] | Hepatotoxicity (acute) [12] [%] | Hepatotoxicity (moderate) [16] [%] | further results |
| --- | --- | --- | --- | --- | --- | --- | --- | --- | --- | --- | --- | --- | --- | --- | --- | --- | --- | --- |
| Cc1ccc(C)c(OCCCC(C)(C)C(=O)O)c1 [GEMFIBROZIL] | 24 | 0 | 0 | 0 | 1 | I/LOVASTATINE | 0 | 1 | 0 | 0 | 1 | 9 days - 12 days | Dose-dependant | 0 | – | – | – | Hepatotoxicity (severe hepatitis) ([9]; Liver): 0; Hepatotoxicity (acute) ([12]; Liver): 0%; Hepatotoxicity (moderate) ([16]; Liver): 10% |
| Cc1onc(-c2c(Cl)cccc2Cl)c1C(=O)N[C@@H]1C(=O)N2[C@@H]1SC(C)(C)[C@@H]2C(=O)O [DICLOXACILLIN] | 2 | 0 | 0 | 1 | 0 | CHOLESTASE_PROLONGEE | 0 | 0 | 1 | 0 | 4 | 5 days - 2 months | Allergic | 3 | 0 | 0 | 0 | – |
| CC(=O)Oc1cccc2c1C(=O)c1c(OC(C)=O)cc(C(=O)O)cc1C2=O [DIACEREIN] | 0 | 0 | 0 | 0 | 0 | AC_ANTI-N | 0 | 1 | 0 | 0 | 2 | 10 days | Allergic | 1 | 1 | 0 | 0 | – |
| CCC(C)n1ncn(-c2ccc(N3CCN(c4ccc(OCC5COC(Cn6cncn6)(c6ccc(Cl)cc6Cl)O5)cc4)CC3)cc2)c1=O (centres undefined) [ITRACONAZOLE] | 55 | 1 | 0 | 0 | 1 | CHOLANGITE DUCTOPENIE HNF | 0 | 10 | 0 | 0 | 18 | 5 days - 7 months | Dose-dependant | 10 | 1 | 30 | 91.7 | – |
| Nc1ccc(S(=O)(=O)Nc2ncccn2)cc1 [SULFADIAZINE] | 2 | 0 | 0 | – | 0 | CHOLESTASE_PROLONGEE | 0 | – | 0 | 0 | 8 | 1 week - 2 months | – | – | – | – | – | Hepatotoxicity (granulomatous hepatitis) ([4]; Liver): 0; Hepatotoxicity (cytolytic) ([8]; Liver): 3; Hepatotoxicity (severe hepatitis) ([9]; Liver): 1; Hepatotoxicity (acute) ([12]; Liver): 0%; Hepatotoxicity (mechanism) ([15]; Liver): Allergic, Reactive metabolite; Hepatotoxicity (moderate) ([16]; Liver): 2.7%; Hepatotoxicity (choleostasis) ([17]; Liver): 1 |
| CCCN(CCC)C(=O)Cc1c(-c2ccc(Cl)cc2)nc2ccc(Cl)cn12 [ALPIDEM] | 0 | 0 | 0 | 0 | 0 | AC_ANTI-N | 0 | 4 | 0 | 0 | 5 | 1 month - 8 months | Allergic | 0 | 5 | 0 | 0 | – |
| CCc1nc(N)nc(N)c1-c1ccc(Cl)cc1 [PYRIMETHAMINE] | 8 | 0 | 0 | 1 | 1 | I/LORAZEPAM | 0 | 0 | 0 | 0 | 1 | 4 hours - 4 months | Dose-dependant | 1 | 0 | 0 | 28.6 | – |
| NCCCC[C@H](N[C@@H](CCc1ccccc1)C(=O)O)C(=O)N1CCC[C@H]1C(=O)O [LISINOPRIL ANHYDROUS] | 4 | 0 | 0 | 0 | 0 | AC_ANTI-ML RC/LISINOPRIL | 0 | 2 | 1 | 0 | 3 | 9 days - 5 months | Allergic | 0 | 1 | 0 | 7.7 | – |
| COc1c(N2CCNC(C)C2)c(F)cc2c(=O)c(C(=O)O)cn(C3CC3)c12 (centres undefined) [GATIFLOXACIN] | 18 | 0 | 0 | 0 | 2 | CHOLESTASE_PROLONGEE DUCTOPENIE | 0 | 2 | 1 | 0 | 3 | 2 days - 8 days | Allergic | 2 | 1 | 0 | 6.5 | – |
| O=C(O)c1cc(-c2ccc(F)cc2F)ccc1O [DIFLUNISAL] | 2 | 0 | 0 | – | 0 | AC_ANTI-ML | 0 | – | 0 | 0 | 5 | 1 week - 1 month | – | – | – | – | – | Hepatotoxicity (granulomatous hepatitis) ([4]; Liver): 1; Hepatotoxicity (cytolytic) ([8]; Liver): 2; Hepatotoxicity (severe hepatitis) ([9]; Liver): 0; Hepatotoxicity (acute) ([12]; Liver): 0%; Hepatotoxicity (mechanism) ([15]; Liver): Allergic; Hepatotoxicity (moderate) ([16]; Liver): 5%; Hepatotoxicity (choleostasis) ([17]; Liver): 4 |
| O=C(c1cc(O)c(O)c(O)c1)c1ccc(O)c(O)c1O [EXIFONE] | 0 | 0 | 0 | 0 | 0 | AC_ANTI-ML/-N | 0 | 9 | 0 | 0 | 9 | 3 weeks - 8 months | Allergic, Toxic | 0 | 4 | 0 | 0 | – |
| Fc1ccc([C@@H]2CCNC[C@H]2COc2ccc3c(c2)OCO3)cc1 [PAROXETINE] | 6 | 0 | 0 | 0 | 0 | AC_ANTI-N I/ATRIUM* RC/DOSULEPINE | 0 | 5 | 1 | 0 | 8 | 6 days - 15 months | Allergic | 2 | 1 | 2 | 11 | – |
